Experimental data: patent US9493466B2, “Treatment of cancer with TOR kinase inhibitors” (Signal Pharmaceuticals, LLC, priority 2011, dated 2016)

Tests used:
[1] = tested on: U87MG tumors; assay: U87MG human glioblastoma xenograft model (Compound 2); assay type: in vivo, SCID mice
Method: U87MG Human Glioblastoma Xenograft Model (Compound 2). Efficacy Studies: Groups of female SCID mice bearing U87MG tumors (n=8-10/group) were dosed orally with vehicle or Compound 2 (doses ranged between 0.05 and 1 mg/kg) throughout the study, starting when tumor volumes reached approximately 170-180 mm^3. The twice daily (BID) dose groups were dosed with a 10-hour separation between morning and evening doses. In the positive control group, rapamycin was administered every third day (Q3D) via intraperitoneal (IP) route. At the end of each study, plasma and/or tumor samples were collected.
Cell Line and Culture. U87MG cell line was obtained from American Tissue Culture Collection (ATCC) (Gaithersburg, Md.) and grown in growth medium containing MEM, 2 mM L-glutamine, 0.1 mM non-essential amino acids, and 1 mM sodium pyruvate plus 10% FBS. The cells were detached from tissue culture flasks using trypsin-EDTA. After centrifugation, the cell pellets were suspended in PBS and cells counted using a hemocytometer. The final volume was adjusted to 5×10^6 cells/0.1 mL of PBS.
Tumor Cell Inoculation. […]
Randomization of Animals. […] The tumor of each animal was measured and animals with tumors ranging between 170 and 180 mm^3 were included in the study. […]
Tumor Measurements. Tumor volumes were determined prior to the initiation of treatment and were considered as the starting volumes. Thereafter, tumors were measured twice a week for the duration of the study. The long and short axes of each tumor were measured using a digital caliper in millimeters. Tumor volumes were calculated using the formula: width^2×length/2. […]
Body Weight Measurements. Initial body weights were recorded prior to the initiation of treatment using a digital scale. The percentage body weight change during the course of the study was calculated using initial body weight measurements. Body weights of each animal were measured twice a week at the same time as the tumor measurements. Body weights were measured more frequently if significant decreases were noted during the course of the study.

[2] = tested on: PC-3, A549, HCT 116, U87-MG, MDA-MB-231, NCI-H23, NCI-H460, T47D; assay: Growth inhibition assay for cell lines with varying sensitivity to rapamycin; assay type: cell-based; conditions: 3 days; including cell types partially sensitive or insensitive to Rapamycin; FIG. 8
Method: Growth Inhibition Assay for Cell Lines with Varying Sensitivity to Rapamycin (Compound 1). Cells were plated in 96-well plates at densities determined for each cell line and the following day were treated with a range of Compound 1 concentrations. The cells were incubated for 3 days at 37° C. and then […] of WST-1 (Roche) for PC-3, A549, HCT 116, U87-MG, MDA-MB-231, and NCI-H23) or […] CellTiter-Glo reagent (Promega) for NCI-H460, T47D) was added to each well and the assay was completed according to manufacturer protocols. The percentage inhibition at each concentration of compound was normalized to the DMSO control values. The percentage inhibition was determined for each replicate and then the 3 values were averaged for each set of triplicate wells. All data were analyzed using XLfit from IDBS. The formula used for determining IC50 in Xlfit was model number 205, which utilizes a 4-parameter logistic model or sigmoidal dose-response model to calculate IC50 values. IC50 values are reported as an average.
Rapamycin effects on proliferation tend to plateau in most cell lines.

[3] = tested on: U87MG tumors; assay: Apoptosis TUNEL assay in U87MG tumors; assay type: in vivo, mice; conditions: 5 mg/kg BID oral for 4 days
Method: Mechanism of action studies. To determine the mechanism of action of Compound 1, mice bearing U87MG tumors of approximately 500 mm^3 were dosed orally with vehicle or Compound 1 at 5 mg/kg BID for 4 days. The positive control, rapamycin, was dosed at 4 mg/kg Q3D for 4 days. Two hours after the 7th dose of Compound 1 on day 4, animals were euthanized and tumors were dissected out and snap frozen in liquid nitrogen. In the rapamycin-treated group tumors were collected at 2 hour after the 2nd dose on day 4. The tumors were processed for immunohistochemistry (IHC) or TUNEL.
Apoptosis TUNEL Assay. To detect apoptotic cells, fluorescence in situ cell death detection kit (Roche Biosciences) was used. […]
Quantitation of Immunohistochemistry. The tissues sections processed for apoptosis or immunostained for proliferating cells (Ki67) or blood vessels were quantitated using Metamorph software. Using 20× objective, 5 different fields from each section, 2-4 sections from each tumor, and 3-4 tumors from each treatment group or control were used for quantitation. The area of interest was expressed as the percent threshold area of the total area.
Apoptotic Activity of Compound 1. […] FITC-labeled nucleotides (representing the cells with DNA strand breaks, a hallmark of apoptosis) can be detected using a microscope equipped with a fluorescence attachment.

| Structure (SMILES) | average tumor volumes compared with vehicle ([1]; 0.05, 0.1 and 0.3 mg/kg BID oral, Day 35) | average tumor volumes compared with vehicle ([1]; 0.1, 0.5 and 1 mg/kg QD oral, Day 34) | lowest efficacious dose (approximately 65% tumor volume inhibition) ([1]; QD oral, 3 weeks) [mg/kg] | cell growth inhibition [2] | TUNEL-positive cells compared with vehicle control [3] |
| --- | --- | --- | --- | --- | --- |
| CCN1C(=O)CNc2ncc(-c3ccc(-c4nc[nH]n4)nc3C)nc21 [Compound 2, 1-ethyl-7-(2-methyl-6-(1H-1,2,4-triazol-3-yl)pyridin-3-yl)-3,4-dihydropyrazino[2,3-b]pyrazin-2(1H)-one] | significantly smaller (p<0.001) | significantly smaller (p<0.001) | 0.5 |  |  |
| CO[C@H]1CC[C@H](N2C(=O)CNc3ncc(-c4ccc(C(C)(C)O)nc4)nc32)CC1 [Compound 1, 7-(6-(2-hydroxypropan-2-yl)pyridin-3-yl)-1-((1r,4r)-4-methoxycyclohexyl)-3,4-dihydropyrazino-[2,3-b]pyrazin-2(1H)-one] |  |  |  | potent cell growth inhibition | more than a four-fold increase |
